Data reported in patent US20260191858A1, “COMBINATION THERAPIES” (Kallyope, Inc., priority 2022, published 2026).

What follows are molecules tested against T1, human GPR119 (hGPR119) (Homo sapiens, UniProt Q8TDV5) (assay: cAMP accumulation assay in CHO-K1 cells stably expressing hGPR119). Conditions: cAMP HTRF, 60 minutes.
T1 construct: expressed in transfected cells; host or cells: CHO-K1
T1 sequence (Q8TDV5 1-335): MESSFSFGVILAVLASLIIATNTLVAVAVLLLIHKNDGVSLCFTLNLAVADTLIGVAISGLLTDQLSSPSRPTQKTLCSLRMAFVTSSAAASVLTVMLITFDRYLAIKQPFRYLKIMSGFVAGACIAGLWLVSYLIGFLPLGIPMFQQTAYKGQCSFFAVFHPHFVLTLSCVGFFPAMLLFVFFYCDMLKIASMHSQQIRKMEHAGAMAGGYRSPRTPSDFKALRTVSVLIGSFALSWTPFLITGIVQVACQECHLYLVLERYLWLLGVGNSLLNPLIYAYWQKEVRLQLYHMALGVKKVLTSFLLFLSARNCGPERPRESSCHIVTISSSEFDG
Format: cell-based
In short: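 Assay-ready frozen CHO-K1 cells stably expressing hGPR119, ~10,000 cells/well, were exposed to compounds for 60 min at 37 °C in stimulation buffer with Tween 80. cAMP was measured by HTRF (665/620 nm ratio) and normalized to Max/Min controls as % activity. EC50 and Max activity came from a 4-parameter fit.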

EC50, 1000 to 10000 nM:
O=C(Cc1ccc(OCCCC2CCN(c3ncc(CO)cn3)CC2)cc1F)N1CC(CNC[C@H](O)[C@@H](O)[C@H](O)[C@H](O)CO)C1 [Compound A55, 2-[2-fluoro-4-[3-[1-[5-(hydroxymethyl)pyrimidin-2-yl]-4-piperidyl]propoxy]phenyl]-1-[3-[[[(2S,3R,4R,5R)-2,3,4,5,6-pentahydroxyhexyl]amino]methyl]azetidin-1-yl]ethanone]

EC50, 100 to 1000 nM:
COCc1cnc(N2CCC(CCCOc3cc(F)c(CC(=O)N4CC(CNC[C@H](O)[C@@H](O)[C@H](O)[C@H](O)CO)C4)c(F)c3)CC2)nc1 [Compound A56]
O=C(NCCS(=O)(=O)O)C1CN(C(=O)Cc2ccc(OCCCC3CCN(c4ncc(Cl)cn4)CC3)cc2F)C1 [Compound A63, 2-[[1-[2-[4-[3-[1-(5-chloropyrimidin-2-yl)-4-piperidyl]propoxy]-2-fluoro-phenyl]acetyl]azetidine-3-carbonyl]amino]ethanesulfonic acid]
O=C(NCCCCCS(=O)(=O)O)C1CN(C(=O)Cc2ccc(OCCCC3CCN(c4ncc(Cl)cn4)CC3)cc2F)C1 [Compound A66, 5-[[1-[2-[4-[3-[1-(5-chloropyrimidin-2-yl)-4-piperidyl]propoxy]-2-fluoro-phenyl]acetyl]azetidine-3-carbonyl]amino]pentane-1-sulfonic acid]
O=C(NCCCCCCS(=O)(=O)O)C1CN(C(=O)Cc2ccc(OCCCC3CCN(c4ncc(Cl)cn4)CC3)cc2F)C1 [Compound A67, 6-[[1-[2-[4-[3-[1-(5-chloropyrimidin-2-yl)-4-piperidyl]propoxy]-2-fluoro-phenyl]acetyl]azetidine-3-carbonyl]amino]hexane-1-sulfonic acid]
O=C(CC1CN(C(=O)Cc2ccc(OCCCC3CCN(c4ncc(Cl)cn4)CC3)cc2F)C1)NCCS(=O)(=O)O [Compound A68, 2-[[2-[1-[2-[4-[3-[1-(5-chloropyrimidin-2-yl)-4-piperidyl]propoxy]-2-fluoro-phenyl]acetyl]azetidin-3-yl]acetyl]amino]ethanesulfonic acid]
O=C(CC1CN(C(=O)Cc2ccc(OCCCC3CCN(c4ncc(Cl)cn4)CC3)cc2F)C1)NCCCS(=O)(=O)O [Compound A69, 3-[[2-[1-[2-[4-[3-[1-(5-chloropyrimidin-2-yl)-4-piperidyl]propoxy]-2-fluoro-phenyl]acetyl]azetidin-3-yl]acetyl]amino]propane-1-sulfonic acid]
O=C(CC1CN(C(=O)Cc2ccc(OCCCC3CCN(c4ncc(Cl)cn4)CC3)cc2F)C1)NCCCCS(=O)(=O)O [Compound A70, 4-[[2-[1-[2-[4-[3-[1-(5-chloropyrimidin-2-yl)-4-piperidyl]propoxy]-2-fluoro-phenyl]acetyl]azetidin-3-yl]acetyl]amino]butane-1-sulfonic acid]

EC50, ≤ 100 nM:
CCOc1cnc(N2CCC(CCCOc3ccc(CC(=O)N4CC(CC(=O)NCC(O)(CO)CO)C4)c(F)c3)CC2)nc1 [Compound A57, N-[2,3-dihydroxy-2-(hydroxymethyl)propyl]-2-[1-[2-[4-[3-[1-(5-ethoxypyrimidin-2-yl)-4-piperidyl]propoxy]-2-fluoro-phenyl]acetyl]azetidin-3-yl]acetamide]
CCOc1cnc(N2CCC(CCCOc3cc(F)c(CC(=O)N4CC(CNC[C@H](O)[C@@H](O)[C@H](O)[C@H](O)CO)C4)c(F)c3)CC2)nc1 [Compound A58, 2-[4-[3-[1-(5-ethoxypyrimidin-2-yl)-4-piperidyl]propoxy]-2,6-difluoro-phenyl]-1-[3-[[[(2S,3R,4R,5R)-2,3,4,5,6-pentahydroxyhexyl]amino]methyl]azetidin-1-yl]ethanone]
O=C(Cc1ccc(OCCCC2CCN(c3ncc(Cl)cn3)CC2)cc1F)N1CC(CCNC[C@H](O)[C@H](O)[C@H](O)CO)C1 [Compound A59, 2-[4-[3-[1-(5-chloropyrimidin-2-yl)-4-piperidyl]propoxy]-2-fluoro-phenyl]-1-[3-[2-[[(2S,3S,4R)-2,3,4,5-tetrahydroxypentyl]amino]ethyl]azetidin-1-yl]ethanone]
O=C(Cc1ccc(OCCCC2CCN(c3ncc(Cl)cn3)CC2)cc1F)N1CC(CNC[C@H](O)[C@H](O)[C@H](O)CO)C1 [Compound A60, 2-[4-[3-[1-(5-chloropyrimidin-2-yl)-4-piperidyl]propoxy]-2-fluoro-phenyl]-1-[3-[[[(2S,3S,4R)-2,3,4,5-tetrahydroxypentyl]amino]methyl]azetidin-1-yl]ethanone]
O=C(Cc1ccc(OCCCC2CCN(c3ncc(Cl)cn3)CC2)cc1F)N1CC(CNC[C@H](O)[C@@H](O)[C@H](O)CO)C1 [Compound A61, 2-[4-[3-[1-(5-chloropyrimidin-2-yl)-4-piperidyl]propoxy]-2-fluoro-phenyl]-1-[3-[[[(2S,3R,4R)-2,3,4,5-tetrahydroxypentyl]amino]methyl]azetidin-1-yl]ethanone]
O=C(Cc1ccc(OCCCC2CCN(c3ncc(Cl)cn3)CC2)cc1F)N1CC(CNC[C@@H](O)[C@H](O)[C@H](O)CO)C1 [Compound A62, 2-[4-[3-[1-(5-chloropyrimidin-2-yl)-4-piperidyl]propoxy]-2-fluoro-phenyl]-1-[3-[[[(2R,3S,4R)-2,3,4,5-tetrahydroxypentyl]amino]methyl]azetidin-1-yl]ethanone]
O=C(NCCCS(=O)(=O)O)C1CN(C(=O)Cc2ccc(OCCCC3CCN(c4ncc(Cl)cn4)CC3)cc2F)C1 [Compound A64, 3-[[1-[2-[4-[3-[1-(5-chloropyrimidin-2-yl)-4-piperidyl]propoxy]-2-fluoro-phenyl]acetyl]azetidine-3-carbonyl]amino]propane-1-sulfonic acid]
O=C(CC1(O)CN(C(=O)Cc2ccc(OCCCC3CCN(c4ncc(Cl)cn4)CC3)cc2F)C1)NCC(CO)(CO)CO [Compound A71, 2-[1-[2-[4-[3-[1-(5-chloropyrimidin-2-yl)-4-piperidyl]propoxy]-2-fluoro-phenyl]acetyl]-3-hydroxy-azetidin-3-yl]-N-[3-hydroxy-2,2-bis(hydroxymethyl)propyl]acetamide]
O=C(Cc1ccc(OCCCC2CCN(c3ncc(Cl)cn3)CC2)cc1F)N1CC(O)(CNC[C@H](O)[C@H](O)[C@H](O)CO)C1 [Compound A72, 2-[4-[3-[1-(5-chloropyrimidin-2-yl)-4-piperidyl]propoxy]-2-fluoro-phenyl]-1-[3-hydroxy-3-[[[(2S,3S,4R)-2,3,4,5-tetrahydroxypentyl]amino]methyl]azetidin-1-yl]ethanone]
